Reference: the NIST ThermoML archive (doi:10.1021/je900722m)
± gives the expanded uncertainty stated by the source.

Details: 101.33 kPa, Liquid

CC(C)(C)O [2-methylpropan-2-ol]
mass density (308.15 K): 770.365 ± 0.5 kg/m3
viscosity (308.15 K): 2.69 ± 0.046 mPa·s
mass density (313.15 K): 765.07 ± 0.51 kg/m3
viscosity (313.15 K): 2.142 ± 0.037 mPa·s
mass density (318.15 K): 759.675 ± 0.52 kg/m3
viscosity (318.15 K): 1.737 ± 0.03 mPa·s
mass density (323.15 K): 754.193 ± 0.53 kg/m3
viscosity (323.15 K): 1.428 ± 0.025 mPa·s
mass density (328.15 K): 748.621 ± 0.54 kg/m3
viscosity (328.15 K): 1.196 ± 0.022 mPa·s
mass density (333.15 K): 742.954 ± 0.55 kg/m3
viscosity (333.15 K): 1.016 ± 0.019 mPa·s
mass density (338.15 K): 737.19 ± 0.56 kg/m3
viscosity (338.15 K): 0.8734 ± 0.017 mPa·s
mass density (343.15 K): 731.313 ± 0.56 kg/m3
viscosity (343.15 K): 0.7603 ± 0.016 mPa·s

CCCCO [butan-1-ol]
mass density (303.15 K): 802.213 ± 0.44 kg/m3
viscosity (303.15 K): 2.296 ± 0.039 mPa·s
mass density (308.15 K): 798.343 ± 0.45 kg/m3
viscosity (308.15 K): 2.025 ± 0.035 mPa·s
mass density (313.15 K): 794.425 ± 0.45 kg/m3
viscosity (313.15 K): 1.795 ± 0.031 mPa·s
mass density (318.15 K): 790.465 ± 0.46 kg/m3
viscosity (318.15 K): 1.595 ± 0.028 mPa·s
mass density (323.15 K): 786.456 ± 0.47 kg/m3
viscosity (323.15 K): 1.417 ± 0.025 mPa·s
mass density (328.15 K): 782.399 ± 0.47 kg/m3
viscosity (328.15 K): 1.271 ± 0.023 mPa·s
mass density (333.15 K): 778.281 ± 0.48 kg/m3
viscosity (333.15 K): 1.138 ± 0.021 mPa·s
mass density (338.15 K): 774.098 ± 0.49 kg/m3
viscosity (338.15 K): 1.028 ± 0.019 mPa·s
mass density (343.15 K): 769.845 ± 0.49 kg/m3
viscosity (343.15 K): 0.9306 ± 0.018 mPa·s

CC(C)CO [2-methyl-1-propanol]
mass density (303.15 K): 794.064 ± 0.46 kg/m3
viscosity (303.15 K): 2.649 ± 0.045 mPa·s
mass density (308.15 K): 790.123 ± 0.46 kg/m3
viscosity (308.15 K): 2.28 ± 0.039 mPa·s
mass density (313.15 K): 786.12 ± 0.47 kg/m3
viscosity (313.15 K): 1.965 ± 0.034 mPa·s
mass density (318.15 K): 782.061 ± 0.48 kg/m3
viscosity (318.15 K): 1.692 ± 0.03 mPa·s
mass density (323.15 K): 777.932 ± 0.48 kg/m3
viscosity (323.15 K): 1.482 ± 0.026 mPa·s
mass density (328.15 K): 773.732 ± 0.49 kg/m3
viscosity (328.15 K): 1.268 ± 0.023 mPa·s
mass density (333.15 K): 769.448 ± 0.5 kg/m3
viscosity (333.15 K): 1.116 ± 0.02 mPa·s
mass density (338.15 K): 765.079 ± 0.51 kg/m3
viscosity (338.15 K): 0.9851 ± 0.019 mPa·s
mass density (343.15 K): 760.611 ± 0.51 kg/m3
viscosity (343.15 K): 0.8767 ± 0.017 mPa·s

CCC(C)O (stereo not given) [butan-2-ol]
mass density (303.15 K): 798.351 ± 0.48 kg/m3
viscosity (303.15 K): 2.607 ± 0.045 mPa·s
mass density (308.15 K): 794.052 ± 0.48 kg/m3
viscosity (308.15 K): 2.163 ± 0.037 mPa·s
mass density (313.15 K): 789.658 ± 0.49 kg/m3
viscosity (313.15 K): 1.84 ± 0.032 mPa·s
mass density (318.15 K): 785.159 ± 0.5 kg/m3
viscosity (318.15 K): 1.557 ± 0.028 mPa·s
mass density (323.15 K): 780.552 ± 0.51 kg/m3
viscosity (323.15 K): 1.333 ± 0.024 mPa·s
mass density (328.15 K): 775.832 ± 0.51 kg/m3
viscosity (328.15 K): 1.151 ± 0.021 mPa·s
mass density (333.15 K): 770.993 ± 0.52 kg/m3
viscosity (333.15 K): 1.002 ± 0.019 mPa·s
mass density (338.15 K): 766.038 ± 0.53 kg/m3
viscosity (338.15 K): 0.8779 ± 0.017 mPa·s
mass density (343.15 K): 760.962 ± 0.54 kg/m3
viscosity (343.15 K): 0.7769 ± 0.016 mPa·s
